Data on 31 compounds can be found in publication PMC8286840, “Identifying SARS-CoV-2 antiviral compounds by screening for small molecule inhibitors of Nsp3 papain-like protease” (Biochemical Journal, 2021).

Assay [1] has as its target T1, SARS-CoV-2 PLpro (nsp3 1564–1878) (Severe acute respiratory syndrome coronavirus 2, UniProt P0DTD1). Put plainly: biochemical. On the set-up: FRET-quenched peptide (Pro3) cleavage by PLpro, 10 min pre-incubation, slope over 20 min, normalised to no-compound control. The following applies: read-out: % of control remaining.
Assay [2] addresses T1, SARS-CoV-2 PLpro (nsp3 1564–1878). In words: biochemical. On the set-up: FRET-quenched peptide (Pro3) cleavage by PLpro, 10 min pre-incubation, slope over 20 min, normalised to no-compound control. The following applies: read-out: % of control remaining. This is another data set of the same source.

Read-outs that look alike come from different tables or passages of the source.

In the case of `CC(C)(C)C[C@@H]1N[C@@H](C(=O)N[C@H]2CC[C@H](O)CC2)[C@H](c2cccc(Cl)c2F)[C@]12C(=O)Nc1cc(Cl)ccc12` [MI-773], the remaining activity at 3.75 µM came out at 93% in assay [1] (Well no.=6488, high concentration screen) and 97.3% in assay [1] (Well no.=8278, high concentration screen). The remaining activity at 1.25 µM in assay [2] (Well no.=6488, low concentration screen) stood at 96.1%; in assay [2] (Well no.=8278, low concentration screen) it was 102%.
As to `Nc1nc(Nc2ccc(S(N)(=O)=O)cc2)nn1C(=O)c1c(F)cccc1F` [JNJ-7706621], in assay [1] (Well no.=8260, high concentration screen), the remaining activity at 3.75 µM was determined as 92%. The remaining activity at 1.25 µM in assay [2] (Well no.=8260, low concentration screen) was determined as 91.9%.
Consider `CC(C)(CN1C(=O)C(Cl)=C(Cl)C1=O)CN1C(=O)C(Cl)=C(Cl)C1=O` [1,1'-(2,2-dimethylpropane-1,3-diyl)bis(3,4-dichloro-1H-pyrrole-2,5-dione)], for which the remaining activity at 3.75 µM in assay [1] (Well no.=5957, high concentration screen) was 105%. For the same compound, the remaining activity at 1.25 µM in assay [2] (Well no.=5957, low concentration screen) is 102%.
On to `O=C(O)c1cc(=O)cc(C(=O)O)[nH]1` [Chelidamic acid], for which the remaining activity at 3.75 µM in assay [1] (Well no.=282, high concentration screen) amounted to 90.8%. Besides, in assay [2] (Well no.=282, low concentration screen), the remaining activity at 1.25 µM worked out at 86.7%.
On to `C[N@+]1(CC2CC2)CC[C@]23c4c5ccc(O)c4O[C@H]2C(=O)CC[C@@]3(O)[C@H]1C5` [Methylnaltrexone (Bromide)], for which the remaining activity at 3.75 µM in assay [1] (Well no.=8091, high concentration screen) amounted to 102%. In assay [2] (Well no.=8091, low concentration screen), the remaining activity at 1.25 µM stood at 97.4%.
For `Nc1nc(NCCc2ccc(O)cc2)nc2nc(-c3ccco3)nn12` [ZM241385], the remaining activity at 3.75 µM worked out at 104% in assay [1] (Well no.=7042, high concentration screen) and 88.3% in assay [1] (Well no.=8411, high concentration screen). Besides, the remaining activity at 1.25 µM turned out to be 106% in assay [2] (Well no.=7042, low concentration screen) and 90.6% in assay [2] (Well no.=8411, low concentration screen).
Regarding `CC(=O)c1ccc(NC2=C(Cl)C(=O)c3ccccc3C2=O)cc1` [NQ301], the remaining activity at 3.75 µM in assay [1] (Well no.=5652, high concentration screen) came to 82.1%. Also, the remaining activity at 1.25 µM in assay [2] (Well no.=5652, low concentration screen) was 93.7%.
For `O=C(N[C@H]1CN2CCC1CC2)c1c[nH]c2ccsc2c1=O` [MKC-733], in assay [1] (Well no.=5899, high concentration screen), the remaining activity at 3.75 µM came to 108%. Also, the remaining activity at 1.25 µM in assay [2] (Well no.=5899, low concentration screen) amounted to 105%.
Take `OC[C@H]1O[C@@H](n2cnc3c(NCc4ccco4)ncnc32)[C@H](O)[C@@H]1O` [Kinetin riboside]: the remaining activity at 3.75 µM in assay [1] (Well no.=6632, high concentration screen) worked out at 96.7%. Moreover, the remaining activity at 1.25 µM in assay [2] (Well no.=6632, low concentration screen) worked out at 91.8%.
In the case of `CC(=O)[C@@]1(O)CC[C@H]2[C@@H]3CCC4=CC(=O)CCC4=C3[C@@H](c3ccc(N(C)C)cc3)C[C@@]21C` [Ulipristal], the remaining activity at 3.75 µM in assay [1] (Well no.=4929, high concentration screen) stood at 104%. Moreover, the remaining activity at 1.25 µM in assay [2] (Well no.=4929, low concentration screen) stood at 105%.
With `O=C(O)/C=C/c1c[nH]c2ccccc12` [3-Beta-Indoleacrylic acid], the remaining activity at 3.75 µM in assay [1] (Well no.=3773, high concentration screen) was 101%. For the same compound, in assay [2] (Well no.=3773, low concentration screen), the remaining activity at 1.25 µM was determined as 99%.
For the compound `O=C(O)C(=O)Cc1ccccc1` [2-Oxo-3-phenylpropanoic acid], the remaining activity at 3.75 µM in assay [1] (Well no.=6877, high concentration screen) was determined as 103%. The remaining activity at 1.25 µM in assay [2] (Well no.=6877, low concentration screen) worked out at 109%.
In the case of `C[C@H](CCC(=O)O)[C@H]1CC[C@H]2[C@@H]3C(=O)C[C@@H]4CC(=O)CC[C@]4(C)[C@H]3CC(=O)[C@]12C` [Dehydrocholic acid], the remaining activity at 3.75 µM in assay [1] (Well no.=8300, high concentration screen) was 99%. Also, in assay [2] (Well no.=8300, low concentration screen), the remaining activity at 1.25 µM stood at 100%.
On to `CCCCc1ccc(C(=O)O)nc1` [Fusaric acid], for which the remaining activity at 3.75 µM in assay [1] (Well no.=613, high concentration screen) is 99.1%. Moreover, in assay [2] (Well no.=613, low concentration screen), the remaining activity at 1.25 µM came to 98.5%.
As to `CCCCCC(=O)c1c(O)c(Cl)c(OC)c(Cl)c1O` [1-(3,5-dichloro-2,6-dihydroxy-4-methoxyphenyl)-1-hexanone], the remaining activity at 3.75 µM in assay [1] (Well no.=5626, high concentration screen) is 102%. Also, the remaining activity at 1.25 µM in assay [2] (Well no.=5626, low concentration screen) turned out to be 99.3%.
As for `Nc1ncnc2c1ncn2[C@H]1C[C@H](O)[C@@H](CO)O1` [2'-Deoxyadenosine monohydrate], the remaining activity at 3.75 µM in assay [1] (Well no.=8885, high concentration screen) amounted to 90.7%. Also, the remaining activity at 1.25 µM in assay [2] (Well no.=8885, low concentration screen) came out at 95.3%.
In the case of `O=C(O[C@H]1C[N+]2(CCCOc3ccccc3)CCC1CC2)C(O)(c1cccs1)c1cccs1` [Aclidinium (Bromide)], the remaining activity at 3.75 µM in assay [1] (Well no.=7336, high concentration screen) was 101%. The remaining activity at 1.25 µM in assay [2] (Well no.=7336, low concentration screen) turned out to be 98%.
As for `CCCOc1cc2c(cc1\C(C)=C/C=C/C(C)=C/C(=O)O)C(C)(C)CCC2(C)C` [(2E,4E,6Z)-3-methyl-7-(5,5,8,8-tetramethyl-3-propoxy-5,6,7,8-tetrahydro-2-naphthalenyl)-2,4,6-octatrienoic acid], the remaining activity at 3.75 µM in assay [1] (Well no.=6004, high concentration screen) came to 93%. In addition, in assay [2] (Well no.=6004, low concentration screen), the remaining activity at 1.25 µM came to 92.7%.
Regarding `CCOC(=O)/C=C(C)/C=C/C=C(C)/C=C/c1c(C)cc(OC)c(C)c1C` [Etretinate], the remaining activity at 3.75 µM in assay [1] (Well no.=2070, high concentration screen) was 101%. In addition, the remaining activity at 1.25 µM in assay [2] (Well no.=2070, low concentration screen) was determined as 102%.
As to `N[C@@H](Cc1ccc(O)c(I)c1)C(=O)O` [3-Iodo-L-tyrosine], in assay [1] (Well no.=919, high concentration screen), the remaining activity at 3.75 µM turned out to be 104%. Besides, the remaining activity at 1.25 µM in assay [2] (Well no.=919, low concentration screen) turned out to be 103%.
On to `CCc1nc(N)nc(N)c1-c1ccc(Cl)cc1` [Pyrimethamine], for which the remaining activity at 3.75 µM in assay [1] (Well no.=4708, high concentration screen) was determined as 97.2%. In addition, the remaining activity at 1.25 µM in assay [2] (Well no.=4708, low concentration screen) amounted to 102%.
On to `N#Cc1cnc2cnc(NCc3cccnc3)cc2c1Nc1ccc(F)c(Cl)c1` [Tpl2 Kinase Inhibitor], for which, in assay [1] (Well no.=2662, high concentration screen), the remaining activity at 3.75 µM is 89.7%. Also, the remaining activity at 1.25 µM in assay [2] (Well no.=2662, low concentration screen) came out at 92.4%.
On to `COCc1nc2c([nH]1)c(=O)n(C)c(=O)n2CC(C)C` [8-Methoxymethyl-3-isobutyl-1-methylxanthine], for which, in assay [1] (Well no.=970, high concentration screen), the remaining activity at 3.75 µM was 102%. For the same compound, the remaining activity at 1.25 µM in assay [2] (Well no.=970, low concentration screen) turned out to be 103%.
`CCN1CCN(c2ccc(Nc3cc(N(C)C(=O)Nc4c(Cl)c(OC)cc(OC)c4Cl)ncn3)cc2)CC1` [BGJ398 (NVP-BGJ398)]: in assay [1] (Well no.=5140, high concentration screen), the remaining activity at 3.75 µM amounted to 99.3%. Further, the remaining activity at 1.25 µM in assay [2] (Well no.=5140, low concentration screen) was 97%.
As for `COc1ccc(C(=O)/C=C/c2cc(OC)c(OC)c(OC)c2)cc1OC` [MD2-IN-1], the remaining activity at 3.75 µM in assay [1] (Well no.=8739, high concentration screen) came out at 95.8%. Further, the remaining activity at 1.25 µM in assay [2] (Well no.=8739, low concentration screen) was found to be 100%.
As to `Cc1ccccc1CN1C(=O)C2=C(CCN(Cc3ccccc3)C2)N2CCN=C12` [TIC10], in assay [1], the remaining activity at 3.75 µM turned out to be 96.2%. Besides, in assay [2], the remaining activity at 1.25 µM was 97.7%.
`N#CC(C#N)=Cc1ccc(O)c(O)c1` [Tyrphostin 23]: the remaining activity at 3.75 µM in assay [1] (Well no.=1341, high concentration screen) was 93.9%. The remaining activity at 1.25 µM in assay [2] (Well no.=1341, low concentration screen) came out at 94.2%.
For `CNC(=O)[C@H](Cc1c[nH]c2ccccc12)NC(=O)[C@@H](CC(=O)NO)CC(C)C` [Ilomastat (GM6001, Galardin)], the remaining activity at 3.75 µM in assay [1] (Well no.=9030, high concentration screen) stood at 94.4%. Moreover, the remaining activity at 1.25 µM in assay [2] (Well no.=9030, low concentration screen) worked out at 101%.
Consider `CCCCCCCCCCCCCCCCCCOCC(COP(=O)([O-])OCC[N+](C)(C)C)OC` (stereo not drawn) [Edelfosine], for which the remaining activity at 3.75 µM in assay [1] (Well no.=5699, high concentration screen) is 96.4%. In assay [2] (Well no.=5699, low concentration screen), the remaining activity at 1.25 µM turned out to be 95.5%.
Turning to `C[C@H](O)CC(=O)O` [(S)-3-Hydroxybutanoic acid], the remaining activity at 3.75 µM in assay [1] (Well no.=7301, high concentration screen) turned out to be 105%. The remaining activity at 1.25 µM in assay [2] (Well no.=7301, low concentration screen) came out at 109%.
For `O=C(O)[C@H]1CCCN1C(=O)CCCCC(=O)N1CCC[C@@H]1C(=O)O` [Miridesap], the remaining activity at 3.75 µM in assay [1] (Well no.=8078, high concentration screen) stood at 97.4%. In addition, the remaining activity at 1.25 µM in assay [2] (Well no.=8078, low concentration screen) stood at 100%.
